Here are results for 23 compounds from US20230183239A1, “ECTONUCLEOTIDE PYROPHOSPHATASE-PHOSPHODIESTERASE 1 (ENPP-1) INHIBITORS AND USES THEREOF” (AbbVie Inc., priority 2017, published 2023).

One may read the Ki as the dissociation constant of the complex between target and ligand, obtained from inhibition or displacement.

What all share (format): biochemical
Assay [1] addresses T1, ENPP1 (Homo sapiens, UniProt P22413).
T1 sequence (P22413 1-925): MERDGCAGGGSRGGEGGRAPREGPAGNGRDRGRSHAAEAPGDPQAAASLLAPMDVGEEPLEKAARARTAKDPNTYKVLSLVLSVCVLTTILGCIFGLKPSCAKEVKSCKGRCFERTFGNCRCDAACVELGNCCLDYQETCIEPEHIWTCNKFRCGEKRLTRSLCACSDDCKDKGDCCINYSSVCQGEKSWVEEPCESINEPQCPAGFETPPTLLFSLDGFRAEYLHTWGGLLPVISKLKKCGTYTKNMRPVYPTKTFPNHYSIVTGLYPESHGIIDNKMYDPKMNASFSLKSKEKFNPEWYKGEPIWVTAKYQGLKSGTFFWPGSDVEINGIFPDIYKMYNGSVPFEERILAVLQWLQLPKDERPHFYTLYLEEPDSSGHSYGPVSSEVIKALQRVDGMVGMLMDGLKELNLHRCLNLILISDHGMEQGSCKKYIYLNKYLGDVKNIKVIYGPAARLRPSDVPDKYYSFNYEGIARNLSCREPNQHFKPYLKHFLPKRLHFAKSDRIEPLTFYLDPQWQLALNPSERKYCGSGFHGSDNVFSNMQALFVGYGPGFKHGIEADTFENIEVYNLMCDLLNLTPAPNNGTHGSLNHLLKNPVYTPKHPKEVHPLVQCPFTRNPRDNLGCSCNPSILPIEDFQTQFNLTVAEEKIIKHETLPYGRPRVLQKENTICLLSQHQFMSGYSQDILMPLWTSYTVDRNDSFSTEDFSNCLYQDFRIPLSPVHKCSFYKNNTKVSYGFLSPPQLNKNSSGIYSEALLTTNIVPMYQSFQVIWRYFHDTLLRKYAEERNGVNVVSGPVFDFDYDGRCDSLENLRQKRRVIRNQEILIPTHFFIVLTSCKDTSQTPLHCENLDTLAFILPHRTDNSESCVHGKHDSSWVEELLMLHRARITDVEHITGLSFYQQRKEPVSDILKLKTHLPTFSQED
In words: ENPP1 enzyme assay with AMP-pNP substrate (hydrolysis of ATP analog). To be noted: AMP-pNP substrate (ATP analog); Ki from IC50 by Cheng-Prusoff; read-out: ENPP1 Inhibition _AMP-pNP: Ki. In a few lines:
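Human recombinant ENPP1 (60 ng/well) with 300 µM AMP-pNP in 50 mM Tris-HCl pH 8.5, 250 mM NaCl, 0.5 mM CaCl2, 1 µM ZnCl2, 0.1% DMSO, 20 min at 37 °C.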

The target of assay [2] is T1, ENPP1. In words: Indirect quantitation of 2',3'-cGAMP hydrolysis (AMP-Glo Assay kit). The note with it: cGAMP substrate; Ki from IC50 by Cheng-Prusoff; read-out: ENPP1 Inhibition -cGAMP: Ki.
Assay [3] has as its target T1, ENPP1. In words: Substrate selectivity ratio, inhibition of cGAMP hydrolysis versus ATP hydrolysis. The note with it: ratio Ki AMP-pNP / Ki cGAMP. How it is done: The selectivity ratios for inhibition of cGAMP hydrolysis versus ATP hydrolysis were then calculated as follows: […]

Each structure is given as a SMILES string. Some results are limits rather than exact numbers.

Regarding `COc1ccc2ncc(C#N)c(-c3ccc(CN(C4CC4)S(N)(=O)=O)cc3)c2c1` [Example 294, N-(4-(3-cyano-6-methoxyquinolin-4-yl)benzyl)-N-cyclopropylsulfamide], the Ki is > 1000 nM in assay [1] and 100 to 1000 nM in assay [2]. Besides, the “Substrate Selectivity: Ki_AMP-pNP/Ki_cGAMP” value (“Substrate Selectivity” below) in assay [3] is >119.
Consider `COc1ccc2c(N3CCc4cc(N(C)S(N)(=O)=O)ccc43)ccnc2c1` [Example 418, N-(1-(7-methoxyquinolin-4-yl)indolin-5-yl)-N-methylsulfamide], for which the Ki was 100 to 1000 nM in assay [1] and < 100 nM in assay [2]. In addition, in assay [3], the “Substrate Selectivity” value was >40.
For `COc1ccc2c(N3CCC4(CCNC4)CC3)c(C#N)cnc2c1` [Example 275, 7-methoxy-4-(2,8-diazaspiro[4.5]decan-8-yl)quinoline-3-carbonitrile], in that order: > 1000 nM, 100 to 1000 nM and >7.7.
On to `NS(=O)(=O)NCCC1CCN(c2ncnc3c2CCNC3)CC1` [Example 232, N-(2-(1-(5,6,7,8-tetrahydropyrido[3,4-d]pyrimidin-4-yl)piperidin-4-yl)ethyl)sulfamide], for which the Ki in assay [1] is > 1000 nM; in assay [2] it was 100 to 1000 nM. In addition, in assay [3], the “Substrate Selectivity” value is recorded as > 7.1.
For `COc1ccc2c(-c3ccc(CNS(N)(=O)=O)cc3)c(C#N)cnc2c1` [Example 244, N-(4-(3-cyano-7-methoxyquinolin-4-yl)benzyl)sulfamide], in that order: 100 to 1000 nM, < 100 nM and 53.0.
Taken in the same sequence, the figures for `COc1ccc2c(N3CCc4cc(NS(N)(=O)=O)ccc43)c(C)cnc2c1` [Example 378, N-(1-(7-methoxy-3-methylquinolin-4-yl)indolin-5-yl)sulfamide] were 100 to 1000 nM, < 100 nM and 42.
Taken in the same sequence, the figures for `COc1cc2ncnc(-c3ccc(CN(C4CC4)S(N)(=O)=O)cc3)c2cc1OC` [Example 285, N-cyclopropyl-N-(4-(6,7-dimethoxyquinazolin-4-yl)benzyl)sulfamide] were 100 to 1000 nM, < 100 nM and >28.3.
In the case of `COc1ccc2c(Oc3ccc(NS(N)(=O)=O)c(C#N)c3)ccnc2c1` [Example 315, N-(2-cyano-4-((7-methoxyquinolin-4-yl)oxy)phenyl)sulfamide], the values for the Ki in assay [1] and in assay [2] were > 1000 nM and < 100 nM, respectively. Besides, the “Substrate Selectivity” value in assay [3] is >49.7.
On to `COc1cc2nccc(Oc3ccc4c(c3)CNS(=O)(=O)N4)c2cc1OC` [Example 263, 6-((6,7-dimethoxyquinolin-4-yl)oxy)-3,4-dihydro-1H-benzo[c][1,2,6]thiadiazine 2,2-dioxide], for which the Ki in assay [1] is > 1000 nM; in assay [2], 100 to 1000 nM. In assay [3], the “Substrate Selectivity” value is reported as >61.9.
For `COc1ccc2c(Oc3ccc(S(N)(=O)=O)cc3)c(C(F)(F)F)cnc2c1` [Example 377, 4-((7-methoxy-3-(trifluoromethyl)quinolin-4-yl)oxy) benzenesulfonamide], in that order: > 1000 nM, 100 to 1000 nM and >89.
For `COc1ccc2c(-c3ccc(CN(C)S(N)(=O)=O)cc3)ccnc2c1` [Example 368, N-(4-(7-methoxyquinolin-4-yl)benzyl)-N-methyl sulfamide], in that order: 100 to 1000 nM, < 100 nM and >7.
`COc1ccc2c(-c3ccc(CNS(N)(=O)=O)nc3)ccnc2c1` [Example 354, N-((5-(7-methoxyquinolin-4-yl)pyridin-2-yl)methyl)sulfamide]: the inhibition constant (Ki) in assay [1] is 100 to 1000 nM; in assay [2], < 100 nM. For the same compound, the “Substrate Selectivity” value in assay [3] worked out at 54.
Regarding `COc1ccc2c(N3CCC4(CC3)CCN(S(N)(=O)=O)C4)c(C#N)cnc2c1` [Example 248, 8-(3-cyano-7-methoxyquinolin-4-yl)-2,8-diazaspiro[4.5]decane-2-sulfonamide], the Ki in assay [1] and in assay [2] was < 100 nM in each case. For the same compound, the “Substrate Selectivity” value in assay [3] worked out at 48.6.
On to `COc1ccc2c(Oc3ccc(N)cc3)ccnc2c1` [Example 342, 4-((7-methoxyquinolin-4-yl)oxy)aniline], for which the inhibition constant (Ki) in assay [1] is > 1000 nM; in assay [2], 100 to 1000 nM. In assay [3], the “Substrate Selectivity” value is >64.9.
Consider `COc1cc2ncc(C(N)=O)c(N3CCC(CCNS(N)(=O)=O)CC3)c2cc1OC` [Example 19, 6,7-dimethoxy-4-(4-(2-(sulfamoylamino)ethyl)piperidin-1-yl)quinoline-3-carboxamide], for which the Ki in assay [1] is > 1000 nM; in assay [2], < 100 nM. Also, in assay [3], the “Substrate Selectivity” value is >95.8.
With `COc1ccc2c(N3CCc4cc(NS(N)(=O)=O)ccc43)ncnc2c1` [Example 392, N-(1-(7-methoxyquinazolin-4-yl)indolin-5-yl)sulfamide], the Ki is > 1000 nM in assay [1] and < 100 nM in assay [2]. Moreover, the “Substrate Selectivity” value in assay [3] was >133.
Take `COc1cc2nccc(Oc3ccc(NS(=O)(=O)C4CCC4)cc3)c2cc1OC` [Example 261, N-(4-((6,7-dimethoxyquinolin-4-yl)oxy)phenyl)cyclobutanesulfonamide]: the Ki in assay [1] was > 1000 nM; in assay [2], 100 to 1000 nM. Moreover, the “Substrate Selectivity” value in assay [3] is recorded as >12.9.
Turning to `COc1cc2ncnc(N3CCC(CCNS(N)(=O)=O)CC3)c2cc1F` [Example 206, N-(2-(1-(6-fluoro-7-methoxyquinazolin-4-yl)piperidin-4-yl)ethyl)sulfamide], the results for the Ki in assay [1] and in assay [2] were 100 to 1000 nM and < 100 nM, respectively. Further, in assay [3], the “Substrate Selectivity” value is listed as 39.6.
Taken in the same sequence, the figures for `COc1cc2nccc(NC3CCC(NS(N)(=O)=O)CC3)c2cc1OC` (stereo not drawn) [Example 307, N-(4-((6,7-dimethoxyquinolin-4-yl)amino)cyclohexyl)sulfamide] were > 1000 nM, 100 to 1000 nM and >15.5.
Turning to `COc1ccc2c(-c3ccc(C(C)(C)NS(N)(=O)=O)cc3)ccnc2c1` [Example 357, N-(2-(4-(7-methoxyquinolin-4-yl)phenyl)propan-2-yl)sulfamide], the values for the Ki in assay [1] and in assay [2] were 100 to 1000 nM and < 100 nM, respectively. Further, the “Substrate Selectivity” value in assay [3] was >18.
Taken in the same sequence, the figures for `COc1ccc2c(Oc3ccc(NS(N)(=O)=O)cc3)cc(C)nc2c1` [Example 397, N-(4-((7-methoxy-2-methylquinolin-4-yl)oxy)phenyl)sulfamide] were 100 to 1000 nM, < 100 nM and >13.
For the compound `COc1ccc2c(Oc3ccc(NS(N)(=O)=O)c(C)c3)ccnc2c1` [Example 308, N-(4-((7-methoxyquinolin-4-yl)oxy)-2-methylphenyl)sulfamide], the values for the Ki in assay [1] and in assay [2] were 100 to 1000 nM and < 100 nM, respectively. In addition, the “Substrate Selectivity” value in assay [3] stood at 28.4.
Taken in the same sequence, the figures for `COc1cc2ncc(C#N)c(Nc3ccc(NS(N)(=O)=O)cc3)c2cc1OC` [Example 175, N-(4-((3-cyano-6,7-dimethoxyquinolin-4-yl)amino)phenyl)sulfamide] were > 1000 nM, < 100 nM and >63.3.
